Assay results from PubChem BioAssay AID1963844 (Molecular Pharmacology Branch, DTP, NCI, 2024).

Test system: 422866-222-R5-J1-PDC complex spheroid viability
Assay: Anticancer human tumor 422866-222-R5-J1-PDC patient-derived pancreatic adenocarcinoma cell line growth inhibition [POLQ]
Conditions: for IC50: curve of first compound; for viability, T/C: stronger effect = lower value
Procedure, shortened: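 Three-cell-type spheroids modelling solid tumor plus stroma served as the readout system; POL inhibitors were tested individually and in combination, concentration ranges set by clinical Cmax where known.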

[1] = second compound 0.0316 µM, first compound 0.0316 µM
[2] = second compound 0.0316 µM, first compound 0.1 µM
[3] = second compound 0.0316 µM, first compound 0.316 µM
[4] = second compound 0.0316 µM, first compound 1 µM
[5] = second compound 0.0316 µM, first compound 3.16 µM
[6] = second compound 0.0316 µM, first compound 10 µM
[7] = second compound 0.1 µM, first compound 0.0316 µM
[8] = second compound 0.1 µM, first compound 0.1 µM
[9] = second compound 0.1 µM, first compound 0.316 µM
[10] = second compound 0.1 µM, first compound 1 µM
[11] = second compound 0.1 µM, first compound 3.16 µM
[12] = second compound 0.1 µM, first compound 10 µM
[13] = second compound 0.316 µM, first compound 0.0316 µM
[14] = second compound 0.316 µM, first compound 0.1 µM
[15] = second compound 0.316 µM, first compound 0.316 µM
[16] = second compound 0.316 µM, first compound 1 µM
[17] = second compound 0.316 µM, first compound 3.16 µM
[18] = second compound 0.316 µM, first compound 10 µM
[19] = second compound 1 µM, first compound 0.0316 µM
[20] = second compound 1 µM, first compound 0.1 µM
[21] = second compound 1 µM, first compound 0.316 µM
[22] = second compound 1 µM, first compound 1 µM
[23] = second compound 1 µM, first compound 3.16 µM
[24] = second compound 1 µM, first compound 10 µM
[25] = second compound 3.16 µM, first compound 0.0316 µM
[26] = second compound 3.16 µM, first compound 0.1 µM
[27] = second compound 3.16 µM, first compound 0.316 µM
[28] = second compound 3.16 µM, first compound 1 µM
[29] = second compound 3.16 µM, first compound 3.16 µM
[30] = second compound 3.16 µM, first compound 10 µM
[31] = second compound 10 µM, first compound 0.0316 µM
[32] = second compound 10 µM, first compound 0.1 µM
[33] = second compound 10 µM, first compound 0.316 µM
[34] = second compound 10 µM, first compound 1 µM
[35] = second compound 10 µM, first compound 3.16 µM
[36] = second compound 10 µM, first compound 10 µM
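Further: spheroids exposed to compounds for one week before readout.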
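Wherever viability, T/C is given: percent of DMSO vehicle wells luminescence so 100% = untreated viability.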

**Q.** How did the IC50 (second compound 0.0316 µM) turn out when `CC1COCCN1c1cc(-c2ccnn2C)c2ccnc(-c3ccn[nH]3)c2n1` (stereo unspecified) + Cc1cccc(N(C)C(=O)C2C(O)CCN2c2nc(C)cc(C(F)(F)F)c2C#N)c1 was run?
**A.** 0.0316 µM

**Q.** What about the IC50 (second compound 0.1 µM) of the same compound?
**A.** > 10 µM

**Q.** What about the IC50 (second compound 0.316 µM) of the same compound?
**A.** > 10 µM

**Q.** What about the IC50 (second compound 1 µM) of the same compound?
**A.** > 10 µM

**Q.** What about the IC50 (second compound 3.16 µM) of the same compound?
**A.** 0.0316 µM

**Q.** And the IC50 (second compound 10 µM)?
**A.** 0.0316 µM

**Q.** What about the viability, T/C [1] of the same compound?
**A.** 82.3%

**Q.** And the viability, T/C [2]?
**A.** 55.7%

**Q.** What about the viability, T/C [3] of the same compound?
**A.** 49.3%

**Q.** What about the viability, T/C [4] of the same compound?
**A.** 37.8%

**Q.** What about the viability, T/C [5] of the same compound?
**A.** 72.3%

**Q.** And the viability, T/C [6]?
**A.** 83.1%

**Q.** And the viability, T/C [7]?
**A.** 87%

**Q.** And the viability, T/C [8]?
**A.** 55.3%

**Q.** And the viability, T/C [9]?
**A.** 49.1%

**Q.** What about the viability, T/C [10] of the same compound?
**A.** 44.5%

**Q.** What about the viability, T/C [11] of the same compound?
**A.** 65.4%

**Q.** What about the viability, T/C [12] of the same compound?
**A.** 73%

**Q.** And the viability, T/C [13]?
**A.** 91.8%

**Q.** And the viability, T/C [14]?
**A.** 59.6%

**Q.** What about the viability, T/C [15] of the same compound?
**A.** 43.9%

**Q.** What about the viability, T/C [16] of the same compound?
**A.** 38.6%

**Q.** And the viability, T/C [17]?
**A.** 62.4%

**Q.** What about the viability, T/C [18] of the same compound?
**A.** 79.8%

**Q.** What about the viability, T/C [19] of the same compound?
**A.** 77.5%

**Q.** And the viability, T/C [20]?
**A.** 73.6%

**Q.** And the viability, T/C [21]?
**A.** 34%

**Q.** What about the viability, T/C [22] of the same compound?
**A.** 42.5%

**Q.** And the viability, T/C [23]?
**A.** 73.7%

**Q.** What about the viability, T/C [24] of the same compound?
**A.** 73.7%

**Q.** And the viability, T/C [25]?
**A.** 75.7%

**Q.** What about the viability, T/C [26] of the same compound?
**A.** 55.8%

**Q.** What about the viability, T/C [27] of the same compound?
**A.** 49.5%

**Q.** And the viability, T/C [28]?
**A.** 43.7%

**Q.** What about the viability, T/C [29] of the same compound?
**A.** 74.3%

**Q.** And the viability, T/C [30]?
**A.** 85%

**Q.** And the viability, T/C [31]?
**A.** 74.3%

**Q.** And the viability, T/C [32]?
**A.** 58.2%

**Q.** And the viability, T/C [33]?
**A.** 46.7%

**Q.** And the viability, T/C [34]?
**A.** 36.5%

**Q.** What about the viability, T/C [35] of the same compound?
**A.** 70.3%

**Q.** What about the viability, T/C [36] of the same compound?
**A.** 94.8%

**Q.** What does the source list for `CC1COCCN1c1cc(C2(S(C)(=N)=O)CC2)nc(-c2ccnc3[nH]ccc23)n1` (stereo unspecified) + Cc1cccc(N(C)C(=O)C2C(O)CCN2c2nc(C)cc(C(F)(F)F)c2C#N)c1?
**A.** IC50 (second compound 0.0316 µM): > 10 µM; IC50 (second compound 0.1 µM): 2.93 µM; IC50 (second compound 0.316 µM): 3.36 µM; IC50 (second compound 1 µM): 4.21 µM; IC50 (second compound 3.16 µM): 5.46 µM; IC50 (second compound 10 µM): 4.41 µM; viability, T/C [1]: 92.5%; viability, T/C [2]: 93.2%; viability, T/C [3]: 98.9%; viability, T/C [4]: 70.1%; viability, T/C [5]: 50.9%; viability, T/C [6]: 50.5%; viability, T/C [7]: 101%; viability, T/C [8]: 121%; viability, T/C [9]: 98.9%; viability, T/C [10]: 74.4%; viability, T/C [11]: 45.8%; viability, T/C [12]: 46.3%; viability, T/C [13]: 110%; viability, T/C [14]: 110%; viability, T/C [15]: 90.3%; viability, T/C [16]: 83.2%; viability, T/C [17]: 47.1%; viability, T/C [18]: 33.8%; viability, T/C [19]: 108%; viability, T/C [20]: 97.6%; viability, T/C [21]: 91.5%; viability, T/C [22]: 76.8%; viability, T/C [23]: 47.5%; viability, T/C [24]: 45.8%; viability, T/C [25]: 103%; viability, T/C [26]: 103%; viability, T/C [27]: 90.6%; viability, T/C [28]: 73.8%; viability, T/C [29]: 60.4%; viability, T/C [30]: 40.3%; viability, T/C [31]: 100%; viability, T/C [32]: 82%; viability, T/C [33]: 93.1%; viability, T/C [34]: 59.2%; viability, T/C [35]: 59.5%; viability, T/C [36]: 37.4%

**Q.** With `CCCS(=O)(=O)Nc1ccc(F)c(C(=O)c2c[nH]c3ncc(-c4ccc(Cl)cc4)cc23)c1F` + Cc1cccc(N(C)C(=O)C2C(O)CCN2c2nc(C)cc(C(F)(F)F)c2C#N)c1 as the compound, how does the IC50 (second compound 0.0316 µM) read?
**A.** > 10 µM

**Q.** What about the IC50 (second compound 0.1 µM) of the same compound?
**A.** > 10 µM

**Q.** And the IC50 (second compound 0.316 µM)?
**A.** > 10 µM

**Q.** What about the IC50 (second compound 1 µM) of the same compound?
**A.** > 10 µM

**Q.** And the IC50 (second compound 3.16 µM)?
**A.** > 10 µM

**Q.** What about the IC50 (second compound 10 µM) of the same compound?
**A.** > 10 µM

**Q.** What about the viability, T/C [1] of the same compound?
**A.** 92.3%

**Q.** And the viability, T/C [2]?
**A.** 115%

**Q.** What about the viability, T/C [3] of the same compound?
**A.** 122%

**Q.** What about the viability, T/C [4] of the same compound?
**A.** 156%

**Q.** And the viability, T/C [5]?
**A.** 214%

**Q.** What about the viability, T/C [6] of the same compound?
**A.** 102%

**Q.** What about the viability, T/C [7] of the same compound?
**A.** 93%

**Q.** And the viability, T/C [8]?
**A.** 99.1%

**Q.** What about the viability, T/C [9] of the same compound?
**A.** 111%

**Q.** What about the viability, T/C [10] of the same compound?
**A.** 138%

**Q.** And the viability, T/C [11]?
**A.** 200%

**Q.** What about the viability, T/C [12] of the same compound?
**A.** 102%

**Q.** And the viability, T/C [13]?
**A.** 92.6%

**Q.** What about the viability, T/C [14] of the same compound?
**A.** 105%

**Q.** And the viability, T/C [15]?
**A.** 135%

**Q.** What about the viability, T/C [16] of the same compound?
**A.** 164%

**Q.** What about the viability, T/C [17] of the same compound?
**A.** 143%

**Q.** And the viability, T/C [18]?
**A.** 94.9%

**Q.** What about the viability, T/C [19] of the same compound?
**A.** 98.5%

**Q.** And the viability, T/C [20]?
**A.** 104%

**Q.** What about the viability, T/C [21] of the same compound?
**A.** 124%

**Q.** And the viability, T/C [22]?
**A.** 145%

**Q.** And the viability, T/C [23]?
**A.** 192%

**Q.** And the viability, T/C [24]?
**A.** 94.8%

**Q.** And the viability, T/C [25]?
**A.** 99.4%

**Q.** What about the viability, T/C [26] of the same compound?
**A.** 105%

**Q.** What about the viability, T/C [27] of the same compound?
**A.** 138%

**Q.** And the viability, T/C [28]?
**A.** 163%

**Q.** What about the viability, T/C [29] of the same compound?
**A.** 205%

**Q.** What about the viability, T/C [30] of the same compound?
**A.** 107%

**Q.** And the viability, T/C [31]?
**A.** 84.4%

**Q.** What about the viability, T/C [32] of the same compound?
**A.** 97%

**Q.** What about the viability, T/C [33] of the same compound?
**A.** 124%

**Q.** And the viability, T/C [34]?
**A.** 149%

**Q.** And the viability, T/C [35]?
**A.** 188%

**Q.** What about the viability, T/C [36] of the same compound?
**A.** 79.2%
